The values below come from PubChem BioAssay AID1259407 (Chemical Carcinogenesis Research Information System (CCRIS), 2018).

Activity calls are given as the source filed them. The rule behind the calls is not given here.

The data set has as its system CCRIS mutagenicity, Ames/micronucleus/aberration tests. The data set is described as follows: CCRIS mutagenicity studies. An excerpt: The CCRIS database contains chemical records with carcinogenicity, mutagenicity, tumor promotion, and tumor inhibition test results. It was developed by the National Cancer Institute (NCI). Data are derived from studies cited in primary journals, current awareness tools, NCI reports, and other sources. Test results have been reviewed by experts in carcinogenesis and mutagenesis.
CCRIS provides historical information from the years 1985 - 2011. It is no longer updated.
This is an archive assay for CCRIS mutagenicity studies.

Setting [1] is: Test System: AMES SALMONELLA TYPHIMURIUM, Strain/Indicator: TA98, Metabolic Activation: HAMSTER, LIVER, S-9, AROCLOR 1254 (10%), Method: PREINCUBATION
Where [2] appears, read: Test System: AMES SALMONELLA TYPHIMURIUM, Strain/Indicator: TA98, Metabolic Activation: NONE, Method: PREINCUBATION
[3] abbreviates: Test System: AMES SALMONELLA TYPHIMURIUM, Strain/Indicator: TA98, Metabolic Activation: RAT, LIVER, S-9, AROCLOR 1254 (10%), Method: PREINCUBATION
The mark [4] stands for this setting: Test System: AMES SALMONELLA TYPHIMURIUM, Strain/Indicator: TA100, Metabolic Activation: HAMSTER, LIVER, S-9, AROCLOR 1254 (10%), Method: PREINCUBATION
The mark [5] stands for this setting: Test System: AMES SALMONELLA TYPHIMURIUM, Strain/Indicator: TA100, Metabolic Activation: NONE, Method: PREINCUBATION
Where [6] appears, read: Test System: AMES SALMONELLA TYPHIMURIUM, Strain/Indicator: TA100, Metabolic Activation: RAT, LIVER, S-9, AROCLOR 1254 (10%), Method: PREINCUBATION
The mark [7] stands for this setting: Test System: AMES SALMONELLA TYPHIMURIUM, Strain/Indicator: TA1535, Metabolic Activation: HAMSTER, LIVER, S-9, AROCLOR 1254 (10%), Method: PREINCUBATION
Where [8] appears, read: Test System: AMES SALMONELLA TYPHIMURIUM, Strain/Indicator: TA1535, Metabolic Activation: NONE, Method: PREINCUBATION
The mark [9] stands for this setting: Test System: AMES SALMONELLA TYPHIMURIUM, Strain/Indicator: TA1535, Metabolic Activation: RAT, LIVER, S-9, AROCLOR 1254 (10%), Method: PREINCUBATION
Where [10] appears, read: Test System: AMES SALMONELLA TYPHIMURIUM, Strain/Indicator: TA1537, Metabolic Activation: HAMSTER, LIVER, S-9, AROCLOR 1254 (10%), Method: PREINCUBATION
[11] abbreviates: Test System: AMES SALMONELLA TYPHIMURIUM, Strain/Indicator: TA1537, Metabolic Activation: NONE, Method: PREINCUBATION
Setting [12] is: Test System: AMES SALMONELLA TYPHIMURIUM, Strain/Indicator: TA1537, Metabolic Activation: RAT, LIVER, S-9, AROCLOR 1254 (10%), Method: PREINCUBATION
Setting [13] is: Test System: AMES SALMONELLA TYPHIMURIUM, Strain/Indicator: TA100, Metabolic Activation: NONE, Method: STANDARD PLATE.

On to `CCCCOC(=O)c1ccccc1C(=O)OC1CCCCC1`, for which the mutagenic call is “inactive; negative” under setting [1]; “inactive; negative” under setting [2]; “inactive; negative” under setting [3]; “inactive; negative” under setting [4]; “inactive; negative” under setting [5]; “inactive; negative” under setting [6]. Besides, the mutagenic call under setting [7] is “inactive; negative”; the mutagenic call under setting [8] was “inactive; negative”; the mutagenic call under setting [9] is “inactive; negative”; the mutagenic call under setting [10] was “inactive; negative”; the mutagenic call under setting [11] is “inactive; negative”; the mutagenic call under setting [12] was “inactive; negative”.

For the compound `O=C1NC(c2ccc([N+](=O)[O-])s2)Nc2ccccc21` (stereo not drawn), the mutagenic call is “active; positive” (Test System: AMES SALMONELLA TYPHIMURIUM, Strain/Indicator: TA98, Metabolic Activation: NONE, Method: STANDARD PLATE) and “active; positive” under setting [13].

In the case of `C[C@H](CCC(=O)O)[C@H]1CC[C@H]2[C@@H]3CC[C@@H]4C[C@@H](O)CC[C@]4(C)[C@H]3C[C@H](O)[C@]12C`, the mutagenic call runs as follows: (Test System: AMES SALMONELLA TYPHIMURIUM, Strain/Indicator: TA98, Metabolic Activation: NONE, Method: FLUCTUATION TEST) “inactive; negative”; under setting [2], “inactive; negative”; (Test System: AMES SALMONELLA TYPHIMURIUM, Strain/Indicator: TA98, Metabolic Activation: RAT, LIVER, S-9, PCB, Method: PREINCUBATION) “inactive; negative”; (Test System: AMES SALMONELLA TYPHIMURIUM, Strain/Indicator: TA100, Metabolic Activation: NONE, Method: FLUCTUATION TEST) “inactive; negative”.

For `O=c1ccc(=O)[nH][nH]1`, the mutagenic call runs as follows: (End Point: IN VITRO CHROMOSOMAL ABERRATIONS, Test System: HUMAN PERIPHERAL BLOOD LYMPHOCYTES, Metabolic Activation: NONE) “inactive; negative”; (End Point: IN VITRO MICRONUCLEUS, Test System: HUMAN PERIPHERAL BLOOD LYMPHOCYTES, Metabolic Activation: NONE) “inactive; negative”; (End Point: IN VITRO MICRONUCLEUS, Test System: HUMAN PERIPHERAL BLOOD LYMPHOCYTES, Metabolic Activation: S-9) “inactive; negative”; under setting [1], “inactive; negative”; under setting [2], “inactive; negative”; under setting [3], “inactive; negative”. Moreover, the mutagenic call under setting [4] is “inactive; negative”; the mutagenic call under setting [5] was “inactive; negative”; the mutagenic call under setting [6] was “inactive; negative”; the mutagenic call under setting [7] was “inactive; negative”; the mutagenic call under setting [8] was “inactive; negative”; the mutagenic call under setting [9] is “inactive; negative”. Besides, the mutagenic call under setting [10] is “inactive; negative”, the mutagenic call under setting [11] was “inactive; negative” and the mutagenic call under setting [12] was “inactive; negative”.

In the case of `CCCCN(C[C@H](CO)Cc1ccccc1)N=O`, the mutagenic call under setting [5] was “inactive; negative” and the mutagenic call (Test System: AMES SALMONELLA TYPHIMURIUM, Strain/Indicator: TA100, Metabolic Activation: RAT, LIVER, S-9, PCB, Method: PREINCUBATION) was “active; positive”.

On to `O=Cc1cc(=O)[nH]c(=O)[nH]1`, for which the mutagenic call (Test System: CHINESE HAMSTER V-79, Strain/Indicator: V-79 (HPRT)/6-THIOGUANINE, Metabolic Activation: NONE, Method: STANDARD PLATE) is “active; positive”.

Take `O=C(N[C@@H](Cc1ccc(Cl)cc1)C(=O)O)OCc1ccccc1`: the mutagenic call was “inactive; negative” (Test System: AMES SALMONELLA TYPHIMURIUM, Strain/Indicator: TA98, Metabolic Activation: NONE); “active; positive” (Test System: AMES SALMONELLA TYPHIMURIUM, Strain/Indicator: TA100, Metabolic Activation: NONE); “inactive; negative” (Test System: AMES SALMONELLA TYPHIMURIUM, Strain/Indicator: TA1535, Metabolic Activation: NONE); “inactive; negative” (Test System: AMES SALMONELLA TYPHIMURIUM, Strain/Indicator: TA1537, Metabolic Activation: NONE); “active; positive” (Test System: B. SUBTILIS, Strain/Indicator: BD190 REC, Metabolic Activation: NONE, Method: SPOT TEST); “active; positive” (Test System: E. COLI, Strain/Indicator: AB2462 UVRA, Metabolic Activation: NONE, Method: SPOT TEST). Further, the mutagenic call (Test System: E. COLI, Strain/Indicator: WP6 POLA, Metabolic Activation: NONE, Method: SPOT TEST) is “inactive; negative”.

On to `CCN(N)CC`, for which the mutagenic call is, setting by setting: (Test System: AMES SALMONELLA TYPHIMURIUM, Strain/Indicator: TA100, Metabolic Activation: NONE, Method: PREINCUBATION (11 HR GROWTH PERIOD FOR BACTERIA)) “inactive; negative”; under setting [13], “inactive; negative”; (Test System: AMES SALMONELLA TYPHIMURIUM, Strain/Indicator: TA100, Metabolic Activation: RAT, LIVER, S-9, AROCLOR 1254, Method: STANDARD PLATE) “inactive; negative”; (Test System: AMES SALMONELLA TYPHIMURIUM, Strain/Indicator: TA100, Metabolic Activation: RAT, LIVER, S-9, PCB, Method: PREINCUBATION (11 HR GROWTH PERIOD FOR BACTERIA)) “inactive; negative”; (Test System: AMES SALMONELLA TYPHIMURIUM, Strain/Indicator: TA102, Metabolic Activation: NONE, Method: PREINCUBATION (5 HR GROWTH PERIOD FOR BACTERIA)) “active; positive”; (Test System: AMES SALMONELLA TYPHIMURIUM, Strain/Indicator: TA102, Metabolic Activation: NONE, Method: PREINCUBATION (7 OR 11 HR GROWTH PERIOD FOR BACTERIA)) “inactive; negative”. In addition, the mutagenic call reads like this: (Test System: AMES SALMONELLA TYPHIMURIUM, Strain/Indicator: TA102, Metabolic Activation: NONE, Method: STANDARD PLATE) “inactive; negative”; (Test System: AMES SALMONELLA TYPHIMURIUM, Strain/Indicator: TA102, Metabolic Activation: RAT, LIVER, S-9, AROCLOR 1254, Method: STANDARD PLATE) “inactive; negative”; (Test System: AMES SALMONELLA TYPHIMURIUM, Strain/Indicator: TA102, Metabolic Activation: RAT, LIVER, S-9, PCB, Method: PREINCUBATION (5 OR 7 HR GROWTH PERIOD FOR BACTERIA)) “inactive; negative”.

For `Cc1cc(-c2ccc(N=Nc3c(N)c(C)cc(S(=O)(=O)O)c3N)c(C)c2)ccc1N=Nc1ccc(O)c(C(=O)O)c1`, the mutagenic call (Test System: AMES SALMONELLA TYPHIMURIUM, Strain/Indicator: TA1538, Metabolic Activation: RAT, LIVER, S-9, AROCLOR 1254, Method: STANDARD PLATE) was “active; positive”.

Turning to `O=CNc1ccc(Oc2c(Cl)cc(Cl)cc2Cl)cc1`, the mutagenic call by setting is: under setting [13], “inactive; negative”; (Test System: AMES SALMONELLA TYPHIMURIUM, Strain/Indicator: TA100, Metabolic Activation: RAT, LIVER, S-9, KANECLOR 500, Method: STANDARD PLATE) “active; positive”.

Regarding `O=C(O)Nc1ccc(-c2ccccc2)cc1`, the mutagenic call is “active; positive” under setting [2]; “active; positive” (Test System: AMES SALMONELLA TYPHIMURIUM, Strain/Indicator: TA98, Metabolic Activation: RAT, LIVER, CYTOSOL, Method: PREINCUBATION); “active; positive” (Test System: AMES SALMONELLA TYPHIMURIUM, Strain/Indicator: TA98, Metabolic Activation: RAT, LIVER, MICROSOMES, Method: PREINCUBATION).
